Patent US10723859B2, “Lignin valorization in ionic liquids and deep eutectic solvent via catalysis and biocatalysis” (University of Kentucky Research Foundation, priority 2017, dated 2020)
“Also recorded” adds a separate entry of the source.

Legend:
Format in all cases: biochemical, Trametes versicolor
[1] = tested on: T. versicolor laccase; test: Lignin model compound (GGE) depolymerization by laccase in AILs, HPLC; settings: 2% [C2C1Im][OAc] or 1% [Ch][Lys], 40° C., O2 30 psi, 2 hours
Method: Appropriate concentrations of AIL, ABTS, laccase, and GGE were mixed. Sodium citrate buffer (1.0 M, pH 5.0) was added for a final reaction volume of 1 mL. Reactions were carried out in a batch reactor at 40° C. Pure O2 was flowed through the reactor for 1 minute. The release valve of the reactor was closed, pure O2 was flowed in at a pressure of 30 psi, and the reaction was allowed to proceed for an additional 2 hours. Product profiles were analyzed by HPLC using the method as described previously (Deng, Zhang et al. 2015). Water and acetonitrile (8:2 v/v) was used as a mobile phase. Mobile phase was flowed at 0.5 mL min^−1 for 30 minutes through an Ultimate 3000 HPLC system (Dionex Corporation, Sunnyvale, Calif., USA) equipped with ultraviolet (UV) detector. Separation was achieved through use of a Zorbax Eclipse XDB-C18 column (5 μm particle size, 150×4.6 mm i.d., Agilent Technologies, Santa Clara, Calif., USA) at 25° C. Elution profile of column was measured by UV absorbance at 280 nm.

[2] = tested on: T. versicolor laccase; test: AIL inhibition: Michaelis-Menten and Lineweaver-Burke curves of laccase; settings: from changes in Vmax and Km with AIL concentration; ABTS substrate, 0.30 μg laccase
Method: Michaelis-Menten curves were generated by mixing appropriate concentrations of AILs and ABTS with 0.30 μg laccase in 96-well plates. Sodium citrate buffer (1.0 M, pH 5.0) was added for a final well volume of 250 μL. ABTS oxidation was measured using the same method as the initial screening. Laccase activity (V) was measured as moles of ABTS oxidized per minute per gram of laccase (mol ABTS·min^−1·g^−1 lac.) and Km was measured in μmol ABTS. Activity was fit to the Michaelis-Menten curve, shown in equation 1. [formula] These curves were linearized using the Lineweaver-Burke method, resulting in equation 2. [formula] Equation 2 was used to solve for Km and Vmax of laccase in known concentrations of AILs.

[3] = tested on: T. versicolor laccase; test: Biocompatibility screening of AILs with laccase (ABTS oxidation assay); settings: for inhibitory effect on laccase (comparison among the 3 ILs): varied concentration of laccase and ILs
Method: All solutions used were adjusted to pH 5.0 prior to beginning experiments. Appropriate concentrations of laccase and AILs were mixed and added to clear, flat bottom 96-well Costar Assay Plates (Corning Inc.; Kenneburk, Me.). ABTS was added for a final concentration of 2 mM. Sodium citrate buffer (1.0 M, pH 5.0) was added for a final well volume of 250 μL. ABTS oxidation was measured for 5 minutes at 40° C. Absorbance readings were taken every 30 seconds at a wavelength of 420 nm using a SpectraMax M2 plate reader from Molecular Devices (Sunnyvale, Calif., USA). Plates were shaken for 5 seconds prior to initial reading and 3 seconds before each reading to ensure homogeneous well solutions.

SMILES | degradation of GGE by laccase in AIL ([1]; with mediator ABTS) | degradation of GGE by laccase in AIL ([1]; without ABTS, 10% [DEA][HSO4]) | type of inhibition of laccase [2] | loss of laccase activity ([3]; 2% IL, ABTS assay) | inhibitory effect on laccase (comparison among the 3 ILs) ([3]; ABTS assay, acetate) | loss of laccase activity ([3]; 2% AIL, ABTS oxidation, pH 5.0, 40° C.) [%] | inhibitory effect on laccase (comparison among the 3 ILs) ([3]; ABTS assay) | loss of laccase activity ([3]; 10% IL, ABTS assay)
CC(=O)[O-].CCn1cc[n+](C)c1 [[C2C1Im][OAc], 1-ethyl-3-methylimidazolium acetate] | able to break down GGE | not capable of breaking down GGE | mixed inhibition | significant loss of laccase activity | more inhibitory to laccase | – | – | –
C[N+](C)(C)CCO.NCCCC[C@H](N)C(=O)[O-] [[Ch][Lys], cholinium lysinate] | able to break down GGE | not capable of breaking down GGE | mixed inhibition | – | – | > 50 | more inhibitory | –
CCNCC.O=S(=O)(O)O [[DEA][HSO4], diethyl ammonium hydrogen sulfate] | – | capable of degrading GGE | noncompetitive inhibition | – | – | – | most biocompatible; also recorded: did not impede the ability of laccase to oxidize ABTS | losing little of its activity; also recorded: negligible to modest loss of laccase activity
